The numbers were not newly measured in paper PMC4621754, “Parasitic diarrheal disease: drug development and targets” (Frontiers in Microbiology, 2015), which cites them from elsewhere.

Like-named read-outs stand apart in the source and are kept apart here.

Data set [1] relates to E. intestinalis. Also on record: method as in Menotti et al., 2005; Pozio and Morales, 2005. To be noted: tissue culture, ref Menotti et al., 2005, Pozio and Morales.
Data set [2] deals with E. intestinalis. Also on record: method as in Didier et al., 2006. To be noted: in vitro; ref Didier et al., 2006.
For data set [3], the system named is E. histolytica PPi-PFK. Also on record: method as in Reeves et al., 1974, 1976. To be noted: ref Reeves et al., 1974, 1976.
Data set [4] relates to Encephalitozoon spp. and E. bieneusi. Also on record: method as in Bacchi and Weiss, 2004. The note with it: in vitro; ref Bacchi and Weiss, 2004.
Data set [5] concerns methionine aminopeptidase type 2(MetAP2). Also on record: method as in Molina et al., 2002. To be noted: E. cuniculi; non-competitive, irreversible; ref Molina et al., 2002.
In data set [6] the test system is G. lamblia.
For data set [7], the system named is Carbamate kinase. Also on record: method as in Galkin et al., 2014. The note with it: ref Galkin et al., 2014.
The test system of data set [8] is giardiasis. On the set-up: method as in Galkin et al., 2014. The note with it: mice; ref Galkin et al., 2014.
Data set [9] concerns Acyl-coenzyme-A synthetases. On the set-up: method as in Guo et al., 2014. The note with it: cryptosporidial infection in mice; ref Guo et al., 2014.
Data set [10] relates to microsporidia. Also on record: method as in Didier et al., 2005. To be noted: ref Didier et al., 2005.
Data set [11] has as its system B. hominis. On the set-up: method as in Van Hellemond et al., 2013. The note with it: in comparison to metronidazole; ref Van Hellemond et al., 2013.
The subject of data set [12] is cryptosporidiosis. Also on record: method as in Mead, 2002; Gargala, 2008. To be noted: ref Mead, 2002, Gargala, 2008.
On the set-up of data set [13]: method as in Diaz et al., 2003. The note with it: intestinal infection caused by C. cayetanensis; ref Diaz et al., 2003.
Data set [14] relates to B. hominis. Also on record: method as in Nasirudeen et al., 2004. The note with it: ref Nasirudeen et al., 2004.
Data set [15] relates to I. belli. To be noted: ref Trier et al., 1974; Syrkis et al., 1975; Butler and De Boer, 1981; Weiss et al., 1988.
Data set [16] relates to human cells. To be noted: ref Bendesky et al., 2002.
In data set [17] the test system is E. intestinalis. To be noted: ref John et al., 2005.
The test system of data set [18] is E. histolytica. To be noted: ref Valdez et al., 2002.
The subject of data set [19] is tubulin. On the set-up: method as in Valdez et al., 2002. To be noted: ref Valdez et al., 2002.

As for `CC(C)c1nc(CN(C)C(=O)N[C@H](C(=O)N[C@@H](Cc2ccccc2)C[C@H](O)[C@H](Cc2ccccc2)NC(=O)OCc2cncs2)C(C)C)cs1` [Ritonavir], the “growth of E. intestinalis” value in data set [1] was “inhibited the growth”.

Regarding `CO[C@@H]1C(=O)CC[C@]2(CO2)[C@@]1(O)[C@@]1(C)O[C@@H]1CC=C(C)C` [ovalicin], the “inhibition of E. intestinalis replication” value in data set [2] was “more than 70%”.

For the molecule `O=P(O)(O)C(O)(Cn1ccnc1)P(=O)(O)O` [CGP42446A], the “inhibition of PFK in E. histolytica” value in data set [3] is recorded as “good inhibitors”.

As to `CO[C@@H]1[C@H](OC(=O)/C=C/C=C/C=C/C=C/C(=O)O)CC[C@]2(CO2)[C@H]1[C@@]1(C)O[C@@H]1CC=C(C)C` [Fumagillin], the “activity against Encephalitozoon spp. and E. bieneusi” value in data set [4] is given as “potent”. The MetAP2 inhibition entry in data set [5] is given as “potent inhibitor”.

On to `CCN(CC)C(=S)SSC(=S)N(CC)CC` [disulfiram], for which, in data set [6] (ref Galkin et al., 2014), the effect on trophozoites result is on record as “kills the trophozoites”. In data set [7], the carbamate kinase inhibition result is “inhibits this enzyme”. Besides, the cure of giardiasis entry in data set [8] is “cure of giardiasis in mice”.

In the case of `CCC/C=C/C/C=C/C=C/C=N/NN=O` [triacsin C], in data set [9], the “inhibition of acyl-coenzyme-A synthetases” value was “inhibited”.

Take `CCn1cc(C(=O)O)c(=O)c2cc(F)c(N3CCNCC3)cc21` [norfloxacin]: the antimicrosporidial activity result in data set [10] is “more than gatifloxacin (6), lomefloxacin (7), moxifloxacin (8), and nalidixic acid (9)”.

Turning to `NC[C@@H]1O[C@H](O[C@H]2[C@@H](O)[C@H](O[C@@H]3[C@@H](O)[C@H](N)C[C@H](N)[C@H]3O[C@H]3O[C@H](CO)[C@@H](O)[C@H](O)[C@H]3N)O[C@@H]2CO)[C@H](N)[C@@H](O)[C@@H]1O` [Paramomycin, paromomycin], the “performance against B. hominis infections” value in data set [11] was “superior performance in comparison to metronidazole”.

As for `CC(=O)Oc1ccccc1C(=O)Nc1ncc([N+](=O)[O-])s1` [nitazoxanide], the efficacy in cryptosporidiosis result in data set [12] (immunocompetent patients) was “effective”; in [12] (immunocompromised patients), “ineffective”. Moreover, in data set [13], the side effects entry is recorded as “no severe side effects”.

In the case of `CC1COc2c(N3CCN(C)CC3)c(F)cc3c(=O)c(C(=O)O)cn1c23` (stereo not drawn) [ofloxacin], the antimicrosporidial activity result in data set [10] was “more than gatifloxacin (6), lomefloxacin (7), moxifloxacin (8), and nalidixic acid (9)”.

For the molecule `Cc1ncc([N+](=O)[O-])n1CCO` [Metronidazole], the programmed cell death result in data set [14] is on record as “induces programmed cell death”. Further, the “cure of I. belli induced diarrhea” value in data set [15] is “cure the I. belli induced diarrhea but to lesser extent”. Besides, the genotoxicity entry in data set [16] was “genotoxic”.

As to `CO[C@@H]1[C@H](OC(=O)NC(=O)CCl)CC[C@]2(CO2)[C@H]1[C@@]1(C)O[C@@H]1CC=C(C)C` [TNP-470], the “inhibition of E. intestinalis replication” value in data set [2] was “more than 70%”.

For the molecule `O=[O+][O-]` [ozone], the “killing of E. intestinalis” value in data set [17] is on record as “kills”.

As a reminder, the IC50 is the concentration needed to halve the response being measured. Take `S=c1[nH]c2ccc(Cl)cc2[nH]1` [Compound 36, 5(6)-chloro-1H-benzimidazole-2-(3H)-thione]: the IC50 in data set [18] is 5 nM; in data set [6] (in vitro, ref Valdez et al., 2002), 5 nM. In addition, in [19], the tubulin polymerization result was “inhibits tubulin polymerization”.

In the case of `CC(C)(C)NC(=O)[C@@H]1CN(Cc2cccnc2)CCN1C[C@@H](O)C[C@@H](Cc1ccccc1)C(=O)N[C@H]1c2ccccc2C[C@H]1O` [indinavir], the “growth of E. intestinalis” value in [1] is listed as “inhibited the growth”.
